Reference: paper PMC10587737, “Dracorhodin targeting CMPK2 attenuates inflammation: A novel approach to sepsis therapy” (Clinical and Translational Medicine, 2023)

Assays:
BMDMs = assay: CCK-8 cytotoxicity assay; assay type: cell-based, mouse; details: DP 5–80 μM
Experimental: To detect the viability of cells, a cell counting kit 8 (CCK-8) assay was performed. BMDMs were seeded at 1×10^6 cells/ml in a 96-well plate and incubated overnight at 37℃. Then, we treated the cells with different concentrations of DP (0-160 μM) for 24 h, added CCK-8 reagent to the cell medium and incubated the cells for 1 h. Then, the optical density was measured at a wavelength of 450 nm.

[1] = test system: cellular CMPK2 activity in BMDMs; assay: Effect on cellular CMPK2 activity (ADP-Glo on cell lysates); assay type: cell-based, mouse
Experimental: Primary BMDMs were generated by culturing mouse bone marrow cells in the presence of 20 ng/ml M-CSF conditioned medium for 7 days. BMDMs were seeded in 6-well plates overnight in FBS-free DMEM. After adhering to the wall, different concentrations of DP were added and treated for 12 hours. On day 2, after priming with ultrapure LPS (200 ng/ml) for 4 h, BMDMs (1 × 10^6 cells/ml) were further stimulated with ATP (4 mM) or Nigericin (10 μM) for 45 min. Cell lysates were collected for ADP-Glo™ Kinase Assay (Promega, Madison, WI, USA).

[2] = test system: NLRP3 inflammasome in BMDMs; assay: NLRP3 inflammasome activation in LPS-primed BMDMs (ATP/Nigericin; ELISA, immunoblot); assay type: cell-based, mouse; details: DP 2.5, 5, 10 μM, supernatant
Experimental: Mouse bone marrow cells (isolated from the legs of mice) were cultured in DMEM supplemented with 20% FBS. BMDMs were generated by culturing mouse bone marrow cells in the presence of 20 ng/ml M-CSF-conditioned medium for 7 days. BMDMs were seeded in 6- or 48-well plates overnight in FBS-free DMEM. On day 2, after priming with ultrapure LPS (200 ng/ml) for 4 h, BMDMs (1 × 10^6 cells/ml) were further stimulated with ATP (4 mM) or nigericin (10 μM) for 45 min. Supernatants and cell lysates were collected for ELISA and immunoblot analyses.
The cytokines mouse IL-1β and TNF-α in supernatants from serum, cell culture, and tissue culture were assayed by ELISA kits (R&D Systems, Minneapolis, MN, USA) according to the manufacturer’s instructions.
Cells were lysed in NP-40 buffer containing a protease inhibitor cocktail (Roche, 11836153001) and a phosphatase inhibitor cocktail (Sigma-Aldrich, P5726). Protein concentrations were quantified using a BCA Protein Assay Kit (Beyotime, 5000T P0011). Equal amounts of protein were separated by SDS-PAGE and transferred onto nitrocellulose membranes. The membranes were then incubated with antibodies against CMPK2, NLRP3, ASC, pro-caspase-1, pro-IL-1β, GAPDH, caspase-1 and IL-1β, followed by incubation with the appropriate secondary HRP-conjugated antibodies and development with ECL.

[3] = test system: LPS-induced septic shock in Cmpk2^∆DMye mice; assay: LPS-induced septic shock in myeloid-specific Cmpk2-deficient mice; assay type: in vivo, mouse; details: DP 40 mg/kg, LPS 20 mg/kg, 72 h
Experimental: The C57BL/6J mice used in the studies were obtained from the Model Animal Research Center of Shanghai University of Traditional Chinese Medicine. All animals were housed under a 12-hr light/dark cycle at 22-24°C with unrestricted access to food and water for the duration of the experiment except during fasting tests. Myeloid-specific Cmpk2-deficient (Cmpk2^DMye) mice were donated by Prof. Huazhang An from Shandong Provincial Key Laboratory for Rheumatic Disease and Translational Medicine. All animal experiments were approved by the Regional Ethics Committee of Shanghai University of Traditional Chinese Medicine.
Sepsis was induced by intraperitoneal injection of 8- to 12-week-old gender-matched wild-type mice with LPS (E. coli O111:B4, Sigma-Aldrich) at 20 mg per kg body weight. Mouse survival was monitored every 1 h after injection for a total of 72 h. In a separate experiment, mice were treated with the same dose of LPS, and immune sera were collected 6 h post injection. Then, the abdominal cavity was washed with PBS. The levels of IL-1β and TNF-α in serum and peritoneal lavage ﬂuid were determined by ELISA. Then, the livers, kidneys and lungs were immediately removed and washed in ice-cold PBS. They were fixed with 4% paraformaldehyde, which was used for hematoxylin-eosin (H&E), Masson staining and Sirius red staining.

CMPK2 lysine residues = molecular target: T1, CMPK2 lysine residues (Homo sapiens, UniProt Q5EBM0); assay: Quantitative lysine reactivity profiling (dimethyl labelling)
T1 construct: the N‐terminus was truncated by 22 amino acids; 6xHis (C); made in house; host or cells: FreeStyle 293-F cells (pTT5 vector)
T1 sequence (Q5EBM0 22-449): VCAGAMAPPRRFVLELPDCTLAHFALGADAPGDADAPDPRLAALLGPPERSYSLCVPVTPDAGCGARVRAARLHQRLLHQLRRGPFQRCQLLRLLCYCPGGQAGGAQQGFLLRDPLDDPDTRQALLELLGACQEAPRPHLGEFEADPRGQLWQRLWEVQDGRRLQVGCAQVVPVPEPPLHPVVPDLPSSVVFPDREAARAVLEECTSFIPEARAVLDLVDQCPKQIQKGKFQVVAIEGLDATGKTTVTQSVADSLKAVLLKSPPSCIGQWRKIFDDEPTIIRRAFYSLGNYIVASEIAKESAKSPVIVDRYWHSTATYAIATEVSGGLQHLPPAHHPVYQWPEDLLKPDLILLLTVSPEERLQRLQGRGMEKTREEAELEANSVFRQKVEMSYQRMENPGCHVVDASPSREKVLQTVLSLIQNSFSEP
Experimental: The extent of DP intervention on lysine residues of CMPK2 conformational changes was visualized and the correlation between this effect and the inhibitory potency of the inhibitor was assessed. […] Finally, after the concentration of the active small molecule was fixed, the concentration of the target protein CMPK2 was tested for lysine labelling reactivity according to a gradient of 0.025, 0.05 and 0.1 mg/mL. The range of concentrations used to investigate the effect of small‐molecule ligands on CMPK2 activity was 0.1–150 μM. Each data point contains three biological replicates.
Stable isotope labeling reactions were performed in the active state of the target protein samples. In short, the sample was split into two identical portions. One portion was incubated with DP, and the other was incubated with DMSO vehicle for 30 min at 37℃. Then, mass-differentiated isotopic labeling was performed with heavy (30 mM CD2O, 5 mM NaBH3CN) and light (30 mM CH2O, 5 mM NaBH3CN) labeling reagents. Active isotopic labeling was allowed to proceed for the indicated time, and this experiment allowed incubation for 15 min at 25℃ in the dark. Add 5 M NH4AC and react for 10 min at room temperature to stop the labeling reaction. […] The digested peptide samples were collected by centrifugation, lyophilized, and stored at -80℃ for quantitative proteomic analysis.

COc1c2ccc(-c3ccccc3)oc-2cc(=O)c1C [compound 73, Dracohodin perochlorate]
cell viability (BMDMs): no significant change
cellular CMPK2 inhibition ([1]; DP 10 μM): enhanced significantly
cellular CMPK2 enzyme activity ([1]; DP 2.5 and 5 μM): tendency to inhibit
lysis of p20 (caspase-1) ([2]; 12 h before or 1 h after LPS): inhibited
secretion of p17 (IL-1β) ([2]; 12 h before or 1 h after LPS): inhibited
production of TNF-α [2]: had no effect
survival rate [3]: did not further improve
isotope-labelling ratios of lysine residues (CMPK2 lysine residues; residues K245, K249, K282, K320, K324, K293, K265, K251, K277 and K368): lower than 0.5
isotope-labelling ratios of lysine residues (CMPK2 lysine residues; residues K393, K433 and K409, DP–CMPK2 co-incubation): approximately 1
